In one assay the test system is 12 isolates. Nature of the assay: Disc diffusion antimicrobial susceptibility testing, all isolates. The class given is cell-based, Staphylococcus pseudolugdunensis. On the procedure:
(§1) In vitro antimicrobial susceptibility testing for amoxicillin-clavulanate, cefazolin, clindamycin, erythromycin, gentamicin, levofloxacin, minocycline, penicillin, rifampin, trimethoprim/sulfamethoxazole (SXT) and vancomycin was determined by a disc diffusion method in accordance with Clinical and Laboratory Standards Institute guidelines (CLSI Performance standards for antimicrobial disk susceptibility tests; Approved standard, 9th ed. (2006) Clinical and Laboratory Standards Institute, Wayne, Pa.).

In assay [1] the test system is isolate B715. Nature of the assay: Disc diffusion antimicrobial susceptibility testing. The following applies: isolate 13715. The class given is cell-based, Staphylococcus pseudolugdunensis. The procedure: as §1
Background: In agar diffusion tests the substance spreads into inoculated agar from a disc or well.

Assay [2] concerns isolate B739. The assay is described as above. The class given is cell-based, Staphylococcus pseudolugdunensis. The following applies: isolate 8739. The procedure: as §1
The subject of a further assay is isolate B333. The assay is described as above. Format: cell-based, Staphylococcus pseudolugdunensis. The procedure:
as §1

The test system of assay [3] is isolate B334. The assay is described as above. The class given is cell-based, Staphylococcus pseudolugdunensis. On the procedure: as §1
The test system of assay [4] is isolate B277. Described as above. The following applies: isolate 8277. Format: cell-based, Staphylococcus pseudolugdunensis. The procedure: as §1
Assay [5] has as its system isolate B006. Described as above. Format: cell-based, Staphylococcus pseudolugdunensis. The procedure: as §1
Assay [6] deals with isolate B287. The assay is described as above. Format: cell-based, Staphylococcus pseudolugdunensis. The following applies: isolate 8287. On the procedure: as §1
For assay [7], the system named is isolate B354. The description is as above. The class given is cell-based, Staphylococcus pseudolugdunensis. The procedure:
as §1

Assay [8] concerns isolate B060. Described as above. Format: cell-based, Staphylococcus pseudolugdunensis. The procedure:
as §1

For assay [9], the system named is isolate B230. The description is as above. The class given is cell-based, Staphylococcus pseudolugdunensis. On the procedure:
as §1

Assay [10] deals with isolate B837. Described as above. Format: cell-based, Staphylococcus pseudolugdunensis. The procedure: as §1
For assay [11], the system named is isolate B292. The description is as above. The class given is cell-based, Staphylococcus pseudolugdunensis. The following applies: isolate 13292. On the procedure:
as §1

The test system of a further assay is isolates B230 and B333. Nature of the assay: Clinical case of intravenous line-associated infection. Format: in vivo, human. The following applies: patient with intravenous line-associated infection, line removed. On the procedure:
The relatedness of these 12 ODC/PYR-positive CoNS was further analyzed by pulsed field gel electrophoresis (PFGE). All isolates were unrelated, except for two isolates (B230 and B333) which were recovered from the same patient over a 16-day interval. […] Vancomycin was administered and the line removed.
Medical records of the 11 patients from whom these isolates were recovered were reviewed and the demographic and clinical information are listed in Table 3. Two isolates (B230 and B333), which were recovered from the same patient over a 16-day interval, were considered to be the pathogen that caused an intravenous line-associated infection. The remaining 10 isolates were considered to be contaminants. Antibiotics, including vancomycin, were administered in 6 (54.5%) cases, including one case in which the two isolates were considered pathogens and in 5 of 10 cases in which the isolates were considered contaminants (Table 3).

Another assay concerns S. lugdunensis. The arrangement: key: “R”, resistant; “S”, susceptible; “v”, variable. The following applies: cited from earlier work.
The test system of another assay is S. epidermidis. The arrangement: key: “R”, resistant; “S”, susceptible; “v”, variable. To be noted: cited from earlier work.
A further assay concerns Unknowns (n = 12). Nature of the assay: Novobiocin and polymyxin B resistance, summary of isolates. Format: cell-based, Staphylococcus pseudolugdunensis. To be noted: for Summary: resistance percentage: Unknowns (n = 12). The text has this:
(§2) Both clinical isolates and reference isolates were first identified by the conventional method based on colony size and pigment; anaerobic and aerobic growth; the presence of clumping factor, Staphaurex latex agglutination (Murex Diagnostics Inc., Norcross, Ga.), hemolysins, oxidase, ODC, urease, and PYR (De Paulis, A. N., et al (2003) J. Clin. Microbiol. 41: 1219-24, 16, 25, 33). Species identification further confirmed by using an API STAPH (bioMerieux Vitek, Inc., Hazelwood, Mo.) according to the manufacturer's instructions (Brun, Y., et al (1990) J. Clin. Microbiol. 8: 503-8; Chapin, K., and M. Musgnug (2003) J. Clin. Microbiol. 41: 4324-7; Gemmell, C. G., and J. E. Dawson (1982) J. Clin. Microbiol. 16:874-7; Heikens, E., et al (2005) J. Clin. Microbiol. 43: 2286-90; Layer, F., B. et al (2006) J. Clin. Microbiol. 44: 2824-30.). PYR and ODC were performed with S. aureus (ATCC#25923) and S. lugdunensis (ATCC#700328) included as negative and positive controls, respectively. Biochemical tests included acid production from D-glucose, D-trehalose, D-mannitol, D-mannose, xylose, maltose, lactose, sucrose, N-acetylglucosamine, raffinose, D-fructose, D-melibiose, xylitol, and α-methyl-glucosamine; nitrate reduction; and alkaline phosphatase, arginine dihydrolase, urease, and acetoin production. […] Biochemical reactions, including catalase, coagulase, D-glucose, D-mannitol, D-fructose, galactose, lactose, maltose, sucrose, D-trehalose, xylose, nitrate reduction, arginine dihydrolase, urease, and novobiocin and polymyxin B resistance, were further confirmed at the Tennessee Department of Health Laboratory Services in Nashville, Tenn., using phenotypic methods recommended by the United States Centers for Disease Control (CDC), Atlanta, Ga. (Kloose, W. E. and T. L. Bannerman (1995) Staphylococcus and Micrococcus, p. 282-298, in P. R. Murray et al. (eds.) Manual of Clinical Microbiology, 6th ed., American Society for Microbiology Press, Washington, D.C.; Kloose, W. E. and K. H. Schleifer (1975) J. Clin. Microbiol. 1: 82-88).

The next assay deals with S. auricularis. More on the design: key: “R”, resistant; “S”, susceptible; “v”, variable. To be noted: cited from earlier work.
Assay [12] relates to isolate B715. Nature of the assay: Novobiocin and polymyxin B resistance, phenotypic methods. Format: cell-based, Staphylococcus pseudolugdunensis. More on the design: key: “R”, resistant; “S”, susceptible; “v”, variable.
Source text: as §2

The subject of assay [13] is isolate B739. The assay is described as above. More on the design: key: “R”, resistant; “S”, susceptible; “v”, variable. Format: cell-based, Staphylococcus pseudolugdunensis.
Source text: as §2

Assay [14] concerns isolate B334. The description is as above. Format: cell-based, Staphylococcus pseudolugdunensis. More on the design: key: “R”, resistant; “S”, susceptible; “v”, variable.
Source text: as §2

The subject of assay [15] is isolate B006. The assay is described as above. Format: cell-based, Staphylococcus pseudolugdunensis. More on the design: key: “R”, resistant; “S”, susceptible; “v”, variable.
Source text: as §2

Assay [16] concerns isolate B287. The assay is described as above. The class given is cell-based, Staphylococcus pseudolugdunensis. More on the design: key: “R”, resistant; “S”, susceptible; “v”, variable.
Source text: as §2

The subject of assay [17] is isolate B354. Described as above. The class given is cell-based, Staphylococcus pseudolugdunensis. More on the design: key: “R”, resistant; “S”, susceptible; “v”, variable.
Source text: as §2

The test system of assay [18] is isolate B060. The assay is described as above. The class given is cell-based, Staphylococcus pseudolugdunensis. The arrangement: key: “R”, resistant; “S”, susceptible; “v”, variable.
Source text: as §2

Assay [19] has as its system isolate B230. The description is as above. Format: cell-based, Staphylococcus pseudolugdunensis. The arrangement: key: “R”, resistant; “S”, susceptible; “v”, variable.
Source text: as §2

The test system of assay [20] is isolate B837. The description is as above. Format: cell-based, Staphylococcus pseudolugdunensis. The arrangement: key: “R”, resistant; “S”, susceptible; “v”, variable.
Source text: as §2

Assay [21] deals with isolate B292. The assay is described as above. Format: cell-based, Staphylococcus pseudolugdunensis. The arrangement: key: “R”, resistant; “S”, susceptible; “v”, variable.
Source text: as §2

The subject of the next assay is “S. pettenkoferi”. More on the design: key: “R”, resistant; “S”, susceptible; “v”, variable. The following applies: Trulzsch et al. (2002); cited from earlier work.
For assay [22], the system named is isolate B277. Put plainly: Novobiocin and polymyxin B resistance, phenotypic methods. The class given is cell-based, Staphylococcus pseudolugdunensis. More on the design: key: “R”, resistant; “S”, susceptible; “v”, variable.
Source text: as §2

Turning to `CN[C@H](CC(C)C)C(=O)N[C@H]1C(=O)N[C@@H](CC(N)=O)C(=O)N[C@H]2C(=O)N[C@H]3C(=O)N[C@H](C(=O)N[C@H](C(=O)O)c4cc(O)cc(O)c4-c4cc3ccc4O)[C@H](O)c3ccc(c(Cl)c3)Oc3cc2cc(c3O[C@@H]2O[C@H](CO)[C@@H](O)[C@H](O)[C@H]2O[C@H]2C[C@](C)(N)[C@H](O)[C@H](C)O2)Oc2ccc(cc2Cl)[C@H]1O` [Vancomycin], the “Susceptibility of all 12 isolates” value in the assay on 12 isolates was “susceptible”. Further, the Antimicrobial susceptibility result in the assay on isolate B715 [1], with isolate B739 [2], with isolate B333, with isolate B334 [3], in the assay on isolate B277 [4] and with isolate B006 [5] was “S” each time. The Antimicrobial susceptibility result with isolate B287 [6], with isolate B354 [7], with isolate B060 [8], in the assay with isolate B230 [9], with isolate B837 [10] and in the assay on isolate B292 [11] was “S” in each case. Further, the Patient outcome in the assay with isolates B230 and B333 is on record as “recovered fully”.
Polymyxin B: the Resistance/Susceptibility result in the assay with S. lugdunensis is “v”; in the assay with S. epidermidis it was “R”; with S. auricularis, “S”; in the assay on isolate B715 [12], “S”; in the assay on isolate B739 [13], “S”; with isolate B334 [14], “S”. The Resistance/Susceptibility result is given as “S” in the assay on isolate B006 [15]; “S” with isolate B287 [16]; “S” in the assay with isolate B354 [17]; “S” with isolate B060 [18]; “S” with isolate B230 [19]; “R” with isolate B837 [20]. The Resistance/Susceptibility entry with isolate B292 [21] was “S”. For the same compound, the “Relative resistance of S. pseudolugdunensis to polymyxin B and novobiocin” value with Unknowns (n = 12) (Staphylococcus pseudolugdunensis bacteria) was “more resistant to polymyxin B than to novobiocin”. For the same compound, the “Summary: resistance percentage” value with Unknowns (n = 12) is on record as 8 percentage.
`CO[C@@H]1[C@@H](OC(N)=O)[C@@H](O)[C@H](Oc2ccc3c(O)c(NC(=O)c4ccc(O)c(CC=C(C)C)c4)c(=O)oc3c2C)OC1(C)C` [Novobiocin]: the Resistance/Susceptibility result is on record as “S” in the assay on S. lugdunensis; “S” with “S. pettenkoferi”; “S” with S. epidermidis; “S” in the assay with S. auricularis; “R” in the assay on isolate B334 [14]; “R” in the assay on isolate B277 [22]. Also, the Resistance/Susceptibility entry in the assay with isolate B287 [16], in the assay with isolate B837 [20] and in the assay with isolate B292 [21] was “R” throughout. Also, in the assay with Unknowns (n = 12), the “Summary: resistance percentage” value was found to be 42 percentage.
